According to patent publication US20240000751A1, “STABLE ORAL FORMULATION CONTAINING 1-(3-CYANO-1-ISOPROPYL-INDOL-5-YL)PYRAZOLE-4-CARBOXYLIC ACID” (LG CHEM, LTD., priority 2020, published 2024):

Test: Stability of API and 1:1 API/excipient mixtures stored under accelerated conditions, residual assay of API by HPLC
Assay type: physicochemical
Details: mixture
Procedure: As disclosed in Table 1 below, after preparing a mixture by mixing API, 1-(3-cyano-1-isopropyl-indol-5-yl)pyrazol-4-carboxylic acid, with various types of excipients such as microcrystalline cellulose, the residual assay of API at the initial stage and after 1 month, 2 months, and 3 months storage, respectively, under accelerated conditions (40° C., 75% RH; relative humidity) were measured through the analysis method and process described below.
• HPLC analysis conditions are as follows: • Column: Inertsil ODS-2 (4.6×150 mm, 5 μm, GL Science) • Detector: 254 nm, UV • Flow Rate: […] • Injection Volume: […] • Column Temperature: 40° C. • Eluent • A: Acetonitril/Purified water/TFA(Trifluoroacetic acid)=40/60/0.1(v/v/v) • B: Acetonitril/Purified water/TFA=80/20/0.1(v/v/v)

- residual assay of API, 3 Months (after 3 months storage under accelerated conditions (40° C., 75% RH)): 98.7%
- residual assay of API, Initial (initial stage, accelerated conditions (40° C., 75% RH)): 98.7%
SMILES: CC(C)n1cc(C#N)c2cc(-n3cc(C(=O)O)cn3)ccc21 [Comparative Example 1, 1-(3-cyano-1-isopropyl-indol-5-yl)pyrazol-4-carboxylic acid]
